Values of other authors as cited in US7135196B2, “Iron compositions” (Vitra Pharmaceuticals Limited, priority 2000, dated 2006).

O=C([O-])/C=C/C(=O)[O-].[Fe+2] [fumarate, ferrous fumarate]
solubility in water: poorly and slowly soluble
